Literature values in patent US20260091056A1, “COMPOSITIONS FOR CONTROLLING ODOR AND ITCH AND METHODS OF AND DEVICES FOR ADMINISTERING SAME” (Vireo Systems, Inc., priority 2020, published 2026).

Conditions: at 25° C.

## boric acid
  pKa value: ~9.14
